From patent publication US12351819B2, “Method for removing undifferentiated pluripotent stem cells” (priority 2017, dated 2025) come the findings set out here.

One data set relates to hiPSCs. To be noted: for cytotoxicity (LDH release) in hiPSCs: 2.5 μM, 24 hours; for LDH assay positive, hiPSCs: Table 1. The procedure: (§1) The supernatants of cells treated with digoxin […], lanatoside C 2.5 μm, or DMSO solvent control for 24 hours were harvested. The released LDH was measured using CytoTox 96 […] assay according to the manufacture's instruction (Promega, Southampton, UK). The supernatants and reagents were incubated at room temperature for 20 minutes and then the reaction was stopped by Stop Solution. The absorbance at 490 nm was measured using a plate-reading spectrophotometer (Benchmark Plus Microplate Spectrophotometer System, BIO-RAD, CA, USA).
hiPSC-derived endothelial cells were prepared according in a previous report^34. The hiPSCs were maintained in mTeSR 1 medium ([…] Technologies, Vancouver, Canada) on VTN-N coated plates (Thermo, Wilmington, DE, USA). First, for the stepwise induction of differentiation, we performed a mesoderm induction of hiPSCs seeded in mesoderm induction medium for 48 hours (basal medium with […], […], and 2 ng/ml of Activin A; basal medium was composed of 12 g/L of DMEM/F-12, 3.56 g/L of HEPES, 1.742 g/L of sodium bicarbonate, 14 μg/L of sodium selenite, 10.7 mg/L of recombinant transferrin, 19.4 mg/L of recombinant insulin, and 64 mg/L of L-Ascorbic acid 2-phosphate sesquimagnesium salt hydrate). Second, for the mesoderm to endothelium transition, mesoderm cells were reseeded in vasculogenic medium (basal medium with 2 mg/ml of PVA plus 20 ng/ml of hVEGF-A) for an additional 72 hours. All differentiated cells were plated on VTN pre-coated culture plate dishes. The endothelial cells were analyzed on day 5 by flow cytometry staining with the CD31 (PECAM1, ThermoFisher Scientific, Wilmington, DE, USA) and CD144 (CDH5, ThermoFisher Scientific) antibodies.

Data set [1] relates to mixture of hESCs and GFP-overexpressing hBMMSCs. In words: Kidney capsule transplantation of treated hESCs and hBMMSCs. The data set is classed as in vivo. To be noted: drug-treated hESCs and hBMMSCs under the kidney capsule, NSG mice, five weeks. The protocol: The 293T cells were seeded with 10^6 cells in 6-well plates for the generation of the lentivirus. After 24 hours, the 293T cells were transfected with 1 μg of pLKO_AS3w.eGFP.bsd, 0.9 μg of pCMVR8.91, and 0.1 μg of pMD.G (National RNAi Core Facility, Taipei, Taiwan) via the TurboFect transfection reagent (Thermo Fisher Scientific). At 24 hours after the transfection, the medium was refreshed with the virus harvest medium, which contained HG-DMEM, 10% FBS and 1% BSA. The hBMMSCs were seeded in 6-well plates and later incubated with the lentivirus (multiplicity of infection=10) for one day. The cells were selected with 10 μg/ml blasticidin (Thermo Fisher Scientific) the following day. The GFP overexpressing hBMMSCs were then isolated using a cell sorter (FACS Aria™ II, BD Biosciences) and cultured in a medium containing 10 μg/ml blasticidin for the following experiments.
Mixtures of approximately 8×10^5 hESCs and 8×10^5 hBMMSCs were injected under the kidney capsules into 6-week-old male NSG mice. Five weeks after the transplantation, the animals were sacrificed, and the tissues were removed, fixed in 10% formalin, embedded in paraffin, stained with H&E or were subjected to IHC staining. The staining protocols were described in the materials and method section. Chicken anti-GFP (ab 13970, Abcam, Cambridge, MA, USA) antibody was used for the GFP overexpressing hBMMSCs IHC staining.

A further data set has as its system hBMMSCs. In words: Osteogenic differentiation and Alizarin Red S staining. The data set is classed as cell-based, human. To be noted: 2.5 μM 24 hours, drug removed; Alizarin Red S O.D 570 nm. The protocol:
Drugs were removed, and the cells were washed with PBS and cultured in MSCgo™ Osteogenic Differentiation medium (Biological Industries, Kibbutz Beit-Haemek, Israel)^31. The media changed twice per week for 14-21 days. Next, the cells were fixed with ice-cold 70% ethanol at −20° C. for 1 hour. After washing with water for three times, the cells were then stained with 40 mM Alizarin Red S (ARS) (pH 4.2) at room temperature for 10 minutes. The cells were then washed with PBS for five times. An Olympus CK-40 microscope was used to take the images. For quantification, the dye was extracted with 10% (w/v) cetylpyridinium chloride (Sigma 0732) in sodium phosphate buffer (pH 7.0) for 15 minutes, and the O.D. at 570 nm was measured.

The subject of another data set is hESCs (H9). To be noted: for cytotoxic effect (LDH release) in hESCs: 2.5 μM, 24 hours, vs DMSO; for LDH assay positive, hESCs: Table 1. The procedure: (§2) The hESC line H9 was purchased from WiCells (Madison, WI, USA)^27. Another hESC line, HUES6, was kindly provided by Dr. Douglas A. Melton (Harvard University, Boston, MA, USA)^28. Cells were maintained on the feeder cells and cultured in Dulbecco's modified Eagle's medium (DMEM)/F12 supplemented with 20% knockout serum replacement, 2 mM L-glutamine, 1% nonessential amino acids, 4 ng/mL human bFGF, and 0.1 mM 2-mercaptoethanol. For the feeder cells culture, C57BL/6 mouse embryonic fibroblasts (MEF) were cultured in the DMEM with 10% FBS and treated cells with 0.01 mg/ml mitomycin C 2-6 hours for inactivation. For the feeder-free culture, hESCs were seeded on the Matrigel Matrix (BD Biosciences, San Jose, CA, USA) coated culture plates and maintained by conditioned medium of MEF (C57BL/6). hBMMSCs were cultured in mesenPRO RS™ kit (Life Technologies, Camarillo, CA, USA). All cells were cultured in a humidified atmosphere containing 5% CO2 at 37° C.
as §1
Background: LDH leaks from cells whose membrane has failed.

In data set [2] the test system is human bone marrow mesenchymal stem cells (hBMMSCs). To be noted: 2.5 μM, 24 hours, vs DMSO. The procedure: as §2, §1
Data set [3] relates to cleaved PARP, caspase-3, caspase-7 in hESCs. In words: Western blot of apoptotic markers, hESCs. The data set is classed as cell-based, human. To be noted: 2.5 μM, 12 hours. The protocol:
RIPA buffer was used to harvest cell lysates (RIPA buffer: NaCl 150 mM, Tris pH 8.0 50 mM, EDTApH 8.0 5 mM, NP-40 1.0%, SDS 0.5%, sodium deoxycholate 0.1%). Western blot analyses were performed as previously described with different types of primary antibodies^29. The primary antibody includes anti-β-actin (A5441; Sigma), anti-Oct4 (sc-9081; Santa Cruz Biotechnology, Santa Cruz, CA, USA), anti-Nanog (3580; Cell Signaling Technology, Danvers, MA, USA), apoptosis antibody kit (9915; Cell Signaling Technology), ATP1A1 (3010; Cell Signaling Technology), and ATP1A2 (16836-1-AP; Proteintech™) were used. After reaction at 4° C. overnight, the blots were incubated with goat anti-mouse- or goat anti-rabbit antibody conjugated with horseradish peroxidase (Jackson ImmunoResearch Inc). The chemiluminescent substrate (WBKLS0500; Millipore, Darmstadt, Germany) was used to detect the blots. Fujifilm LAS-4000 (FUJIFILM, Tokyo, Japan) was used to take the images.
For orientation: In western blotting, separated proteins are transferred to a membrane and probed.

Consider `C[C@H]1O[C@@H](O[C@H]2[C@@H](O)C[C@H](O[C@H]3[C@@H](O)C[C@H](O[C@H]4CC[C@@]5(C)[C@H](CC[C@@H]6[C@@H]5C[C@@H](O)[C@]5(C)[C@@H](C7=CC(=O)OC7)CC[C@]65O)C4)O[C@@H]3C)O[C@@H]2C)C[C@H](O)[C@@H]1O` [Digoxin, digoxin], for which, in the data set with hiPSCs, the “cytotoxicity (LDH release) in hiPSCs” value is “induced cytotoxicity” and the “LDH assay positive, hiPSCs” value was “+++ (more than 70% positive cells)”. The “tumor area of kidney tissue” value in data set [1] is reported as “significantly inhibited”. The “differentiation ability of hBMMSCs into osteoblasts” value with hBMMSCs is “neither digoxin nor lanatoside C affected the differentiation ability”. Further, in the data set with hESCs (H9), the “cytotoxic effect (LDH release) in hESCs” value is recorded as “significantly induced a cytotoxic effect” and the “LDH assay positive, hESCs” value is “+++ (more than 70% positive cells)”. Besides, the “cytotoxic effect (LDH release) in hBMMSCs” value in data set [2] is reported as “no cytotoxic effects”. For the same molecule, the “cleaved form of PARP, caspase-3, caspase-7 in hESCs” value in data set [3] was “increases in the cleaved form”.
In the case of `CC(=O)O[C@H]1C[C@H](O[C@H]2[C@@H](O)C[C@H](O[C@H]3[C@@H](O)C[C@H](O[C@H]4CC[C@@]5(C)[C@H](CC[C@@H]6[C@@H]5C[C@@H](O)[C@]5(C)[C@@H](C7=CC(=O)OC7)CC[C@]65O)C4)O[C@@H]3C)O[C@@H]2C)O[C@H](C)[C@H]1O[C@@H]1O[C@H](CO)[C@@H](O)[C@H](O)[C@H]1O` [Lanatoside C, lanatoside C], in the data set on hiPSCs, the “cytotoxicity (LDH release) in hiPSCs” value is “induced cytotoxicity” and the “LDH assay positive, hiPSCs” value is listed as “+++ (more than 70% positive cells)”. In data set [1], the “tumor area of kidney tissue” value is listed as “significantly inhibited”. In addition, the “differentiation ability of hBMMSCs into osteoblasts” value in the data set with hBMMSCs is recorded as “neither digoxin nor lanatoside C affected the differentiation ability”. Besides, in the data set with hESCs (H9), the “cytotoxic effect (LDH release) in hESCs” value was “significantly induced a cytotoxic effect” and the “LDH assay positive, hESCs” value is “+++ (more than 70% positive cells)”. In data set [2], the “cytotoxic effect (LDH release) in hBMMSCs” value is “no cytotoxic effects”. For the same molecule, the “cleaved form of PARP, caspase-3, caspase-7 in hESCs” value in data set [3] is “increases in the cleaved form”.
